These results are taken from patent US4393225A, “AI-77 Compounds and pharmaceutically acceptable salts thereof” (Asahi Kasei Kogyo Kabushiki Kaisha, priority 1979, dated 1983).

For the first experiment, the system named is ulcer. Description: Anti-ulcer test (restraint and water immersion ulcer in rats, i.p.). In kind it is in vivo, Male Wistar rats. The following applies: Rattus norvegicus, ip, read-out: % Inhibition of Ulcer. The method, boiled down:
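Male Wistar rats (~150 g), fasted 24 h, dosed i.p. with compound in physiological saline; 1 h later restrained and immersed to xiphisternum in 21 °C water for 6 h. Stomachs examined microscopically, ulcers scored 0–3, and percent inhibition calculated.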
Consider `CCCCCNC(CC(N)=O)C(O)C(O)C(=O)NC(CC(C)C)C1Cc2cccc(O)c2C(=O)O1` (stereo not drawn) [VII-10-2], for which the inhibition in vivo at 25 mg/kg turned out to be 94%.

The experiment is the same for the next values; noted with them: Rattus norvegicus, ip; 25 mg/kg i.p.; read-out: % Inhibition of Ulcer.
For the molecule `CCCCCCCC(=O)NC(CC(N)=O)C(O)C(O)C(=O)NC(CC(C)C)C1Cc2cccc(O)c2C(=O)O1` (stereo not drawn) [VII-28-3], the inhibition in vivo at 25 mg/kg was 66%.
Still for that read-out and setting: under `CCCCOc1cccc2c1C(=O)OC(C(CC(C)C)NC(=O)C(O)C(O)C(CC(=O)NCC)NC(C)=O)C2` (stereo not drawn) [VII-32-1] stands 66%; under `COC(C(=O)NC(CC(C)C)C1Cc2cccc(OC(C)=O)c2C(=O)O1)C(O)C(N)CC(N)=O` (stereo not drawn) [VII-9-3], 72%; under `CCCCNC(=O)CC(N)C(O)C(OCCC)C(=O)NC(CC(C)C)C1Cc2cccc(OCC)c2C(=O)O1` (stereo not drawn) [VII-7-4], 66%.
Take `CCCCCCCCCCCCCCCCCCNC(CC(N)=O)C(O)C(O)C(=O)NC(CC(C)C)C1Cc2cccc(O)c2C(=O)O1` (stereo not drawn) [VII-10-5]: the inhibition in vivo at 25 mg/kg was found to be 89%.
The same measure, in the same setting: the result for `CC(C)CC(NC(=O)C(O)C(O)C(N)CC(=O)NCc1cccc(Cl)c1)C1Cc2cccc(O)c2C(=O)O1` (stereo not drawn) [VII-1-20] reads 94%; that for `CCOc1cccc2c1C(=O)OC(C(CC(C)C)NC(=O)C(OC(C)=O)C(O)C(N)CC(N)=O)C2` (stereo not drawn) [VII-6-1], 66%.
Same read-out and setting: under `CNC(CC(N)=O)C(O)C(O)C(=O)NC(CC(C)C)C1Cc2cccc(OC)c2C(=O)O1` (stereo not drawn) [VII-23-5] stands 89%.
Regarding `CCCCNC(=O)CC(NCCCC)C(O)C(O)C(=O)NC(CC(C)C)C1Cc2cccc(O)c2C(=O)O1` (stereo not drawn) [VII-10-4], the inhibition in vivo at 25 mg/kg worked out at 72%.
Consider `CCCCCCCCCCCCCCCCCCNC(CC(N)=O)C(O)C(OCCCC)C(=O)NC(CC(C)C)C1Cc2cccc(O)c2C(=O)O1` (stereo not drawn) [VII-17-2], for which the inhibition in vivo at 25 mg/kg came to 56%.
As to `CC(=O)OC(C(=O)NC(CC(C)C)C1Cc2cccc(O)c2C(=O)O1)C(O)C(N)CC(N)=O` (stereo not drawn) [VII-2-1], the inhibition in vivo at 25 mg/kg was determined as 78%.
Take `CCNC(CC(N)=O)C(O)C(O)C(=O)NC(CC(C)C)C1Cc2cccc(OC)c2C(=O)O1` (stereo not drawn) [VII-14-2]: the inhibition in vivo at 25 mg/kg amounted to 83%.
Still for that read-out and setting: the result for `CC(C)CC(NC(=O)C(O)C(O)C(N)CC(=O)NC1CC1)C1Cc2cccc(O)c2C(=O)O1` (stereo not drawn) [VII-1-11] reads 94%.

Still in this experiment, the particulars now being: Rattus norvegicus, ip; 50 mg/kg i.p.; read-out: % Inhibition of Ulcer.
In the case of `CC(=O)Oc1cccc2c1C(=O)OC(C(CC(C)C)NC(=O)C(O)C1OC(=O)CC1NC(=O)C(C)C)C2` (stereo not drawn) [IIIa-4-2], the inhibition in vivo at 50 mg/kg was 44%.
Take `CC(=O)Oc1cccc2c1C(=O)OC(C(CC(C)C)NC(=O)C(O)C1OC(=O)CC1NC(=O)C1CCCO1)C2` (stereo not drawn) [IIIa-4-5]: the inhibition in vivo at 50 mg/kg worked out at 33%.
With `CC(C)CCOc1ccc(COc2cccc3c2C(=O)OC(C(CC(C)C)NC(=O)C(O)C2C=CC(=O)O2)C3)cc1` (stereo not drawn) [IVa-4-24], the inhibition in vivo at 50 mg/kg was 33%.
As for `CCCCCCCCCCCCCCCCCC(=O)NC1CC(=O)OC1C(O)C(=O)NC(CC(C)C)C1Cc2cccc(O)c2C(=O)O1` (stereo not drawn) [IIIa-1-11], the inhibition in vivo at 50 mg/kg came to 44%.
Take `CCOc1cccc2c1C(=O)OC(C(CC(C)C)NC(=O)C(O)C1OC(=O)CC1NC(=O)CSC)C2` (stereo not drawn) [IIIa-5-43]: the inhibition in vivo at 50 mg/kg stood at 44%.
For `CC(C)CC(NC(=N)C(O)C(O)C(N)CC(=O)O)C1Cc2cccc(OC(=O)C(C)C)c2C(=O)O1` (stereo not drawn) [Vb-4-1], the inhibition in vivo at 50 mg/kg turned out to be 78%.
Turning to `CCCCOC(C(=O)NC(CC(C)C)C1Cc2cccc(OC)c2C(=O)O1)C1OC(=O)CC1NC` (stereo not drawn) [IIIa-33-1], the inhibition in vivo at 50 mg/kg was 56%.
For the molecule `CC(=O)NC1CC(=O)OC1C(OC(C)=O)C(=O)NC(CC(C)C)C1Cc2cccc(OC(C)=O)c2C(=O)O1` (stereo not drawn) [IIIa-3-1], the inhibition in vivo at 50 mg/kg was 33%.
`C/C=C/C(=O)OC(C(=N)NC(CC(C)C)C1Cc2cccc(O)c2C(=O)O1)C(O)C(N)CC(=O)O` (stereo not drawn) [Vb-2-3]: the inhibition in vivo at 50 mg/kg turned out to be 66%.
The same measure, in the same setting: the result for `CC(=O)Oc1cccc2c1C(=O)OC(C(CC(C)C)NC(=O)C(O)C1OC(=O)CC1NCC(C)C)C2` (stereo not drawn) [IIIa-21-2] reads 72%.
Consider `CC(C)CCc1ccc(COc2cccc3c2C(=O)OC(C(CC(C)C)NC(=O)C(O)C2C=CC(=O)O2)C3)cc1` (stereo not drawn) [IVa-4-22], for which the inhibition in vivo at 50 mg/kg is 33%.
Same read-out and setting: the result for `CC(C)CC(NC(=N)C(OC(=O)CCC1CCCC1)C(O)C(N)CC(=O)O)C1Cc2cccc(O)c2C(=O)O1` (stereo not drawn) [Vb-2-2] reads 56%.
Consider `CCCCCCCCCCCCCCCCCCNC1CC(=O)OC1C(O)C(=O)NC(CC(C)C)C1Cc2cccc(OC(C)=O)c2C(=O)O1` (stereo not drawn) [IIIa-21-3], for which the inhibition in vivo at 50 mg/kg came to 66%.
As for `CCC(=O)COc1cccc2c1C(=O)OC(C(CC(C)C)NC(=O)C(O)C1OC(=O)CC1N)C2` (stereo not drawn) [IIIa-13-20], the inhibition in vivo at 50 mg/kg was found to be 100%.
With `CC(=O)OC(C(=O)NC(CC(C)C)C1Cc2cccc(O)c2C(=O)O1)C1C=CC(=O)O1` (stereo not drawn) [IVa-1-1], the inhibition in vivo at 50 mg/kg amounted to 44%.
Still for that read-out and setting: the result for `C#CC(=O)NC1CC(=O)OC1C(O)C(=O)NC(CC(C)C)C1Cc2cccc(O)c2C(=O)O1` (stereo not drawn) [IIIa-1-52] reads 66%; that for `CCOc1cccc2c1C(=O)OC(C(CC(C)C)NC(=O)C(O)C1OC(=O)CC1NC(=O)c1cn(C(C)=O)c3ccccc13)C2` (stereo not drawn) [IIIa-5-34], 33%.
For `CCCCOc1cccc2c1C(=O)OC(C(CC(C)C)NC(=O)C(OCCCC)C1OC(=O)CC1NC)C2` (stereo not drawn) [IIIa-33-3], the inhibition in vivo at 50 mg/kg came out at 56%.
Consider `CCCCOC(C(=O)NC(CC(C)C)C1Cc2cccc(OC(C)=O)c2C(=O)O1)C1OC(=O)CC1NCC` (stereo not drawn) [IIIa-26-1], for which the inhibition in vivo at 50 mg/kg was determined as 66%.
For `CCCC(=O)NC1CC(=O)OC1C(OC)C(=O)NC(CC(C)C)C1Cc2cccc(OCc3ccc4ccccc4c3)c2C(=O)O1` (stereo not drawn) [IIIa-7-13], the inhibition in vivo at 50 mg/kg worked out at 33%.
Consider `COc1cccc2c1C(=O)OC(C(CC(C)C)NC(=O)C(O)C1OC(=O)CC1NC(C)=O)C2` (stereo not drawn) [IIIa-5-5], for which the inhibition in vivo at 50 mg/kg was 44%.
As to `C#CC(=O)NC1CC(=O)OC1C(O)C(=O)NC(CC(C)C)C1Cc2cccc(OCC)c2C(=O)O1` (stereo not drawn) [IIIa-5-51], the inhibition in vivo at 50 mg/kg was 44%.
Take `CCCCCCCCCCCCCCCCCCNC1CC(=O)OC1C(OCCCC)C(=O)NC(CC(C)C)C1Cc2cccc(O)c2C(=O)O1` (stereo not drawn) [IIIa-25-3]: the inhibition in vivo at 50 mg/kg came out at 56%.
`CCOc1cccc2c1C(=O)OC(C(CC(C)C)NC(=O)C(OC(C)=O)C1OC(=O)CC1NC(=O)c1ccc(C)cc1)C2` (stereo not drawn) [IIIa-6-8]: the inhibition in vivo at 50 mg/kg turned out to be 22%.
Regarding `CNC1CC(=O)OC1C(O)C(=O)NC(CC(C)C)C1Cc2cccc(OC(C)=O)c2C(=O)O1` (stereo not drawn) [IIIa-30-1], the inhibition in vivo at 50 mg/kg came to 78%.
Regarding `CCCCCC(=O)OC(C(=O)NC(CC(C)C)C1Cc2cccc(O)c2C(=O)O1)C1C=CC(=O)O1` (stereo not drawn) [IVa-1-7], the inhibition in vivo at 50 mg/kg worked out at 44%.
On the same count and under the same terms, the result for `CCCCCCCCC=CCCCCCCCC(=O)Oc1cccc2c1C(=O)OC(C(CC(C)C)NC(=O)C(O)C1C=CC(=O)O1)C2` (stereo not drawn) [IVa-3-12] reads 33%; that for `CC(C)CC(NC(=O)C(O)C1OC(=O)CC1NC(=O)C(Cl)(Cl)Cl)C1Cc2cccc(O)c2C(=O)O1` (stereo not drawn) [IIIa-1-12], 66%.
With `CC(=O)OC(C(=N)NC(CC(C)C)C1Cc2cccc(O)c2C(=O)O1)C(O)C(CC(=O)O)NCCC(C)C` (stereo not drawn) [Vb-11-2], the inhibition in vivo at 50 mg/kg turned out to be 66%.
For `CCOc1cccc2c1C(=O)OC(C(CC(C)C)NC(=N)C(O)C(O)C(CC(=O)O)NC)C2` (stereo not drawn) [Vb-23-1], the inhibition in vivo at 50 mg/kg turned out to be 89%.
The same measure, in the same setting: under `CC(C)CC(NC(=O)C(OC(=O)C(C)C)C1C=CC(=O)O1)C1Cc2cccc(O)c2C(=O)O1` (stereo not drawn) [IVa-1-4] stands 44%.
